Results from US20040037806A1, “Aldosterone blocker therapy to prevent or treat inflammation-related disorders” (Pharmacia Corporation, priority 2002, published 2004).
Entries after “also recorded” stand apart in the source; their conditions may differ.

Legend:
[1] = Assay C: body weight, ventricle weights, tibia length (myocardial hypertrophy); assay type: in vivo, rat; conditions: for Ventricular hypertrophy (absolute ventricular weights, ventricular weight to tibia length ratios): aldosterone+salt alone or with eplerenone 100 mg/kg/day, 7, 14, 30 days; for Body weight: aldosterone+salt at days 7, 14 and 30 vs vehicle+salt, eplerenone 100 mg/kg/day effect at day 30
Experimental: The procedure of Assay B was expanded upon in a further study. […] Myocardial tissue from animals in each treatment group was examined after 7, 14, or 30 days of treatment. […] Lesions were preceded by the expression and progressive upregulation of proinflammatory molecules. […] Male Sprague-Dawley rats, weighing 230 to 250 g, (Harlan Sprague-Dawley Industries, Indianapolis, Ind.) were housed in a room 12-hours light/12-hours dark daily cycle at an ambient temperature of 22±1° C. (n=96). Animals were allowed one week to adjust after arrival and had free access to TEKLAD 22/5 rodent diet (Harlan TEKLAD, Madison, Wis.) and tap water until the initiation of the experiment. Prior to surgery the animals were individually weighed and placed in one of the following groups: […] Potassium chloride supplementation was added to the saline solution in order to prevent the potential hypokalemia associated with aldosterone excess. Treatment At the time of the surgery, an Alzet 2002 osmotic minipump (Alza Corp., Palo Alto, Calif.) containing either vehicle (9% ethanol/87% propylene glycol/4% dH2O) or 1.0 mg/mL d-aldosterone (Sigma Chemical, St. Louis, Mo.) was inserted subcutaneously at the nape of the neck. Aldosterone was administered at a dose of 0.75 µg/hour. […] Animals were sacrificed from each group (n=8-13) after 7, 14, or 30 days of treatment. At the cessation of each experimental time point, the animals were anesthetized with pentobarbital (65 mg/kg i.p., Sigma Chemical, St. Louis Mo.) and weighed with a Mettler PM6000 balance (Mettler-Toledo, Inc., Hightstown, N.J.). The abdominal cavity was opened to expose the abdominal aorta. A 16-gauge needle was inserted into the abdominal aorta and the animal was exsanguinated into a 12 cc syringe. The blood sample was transferred immediately into glass serum collection tubes (Terumo Medical Corp., Elkton, Md.) for drug level analysis. The samples were placed on wet ice until sample collection was complete and centrifuged for 15 min at 3000 rev/min at 4° C. Following exsanguination, hearts and kidneys were isolated, removed, rinsed in cold phosphate-buffered saline, and blotted dry. Kidneys were immediately bifurcated through the long axis with a razor blade and placed in 10% neutral buffered formalin (NBF, Richard-Allen Scientific, Kalamazoo, Mich.). For the hearts, the right ventricle (RV) was cut away from the left ventricle (LV), both ventricles were weighed using a Mettler AE163 balance (Mettler-Toledo, Inc., Hightstown, N.J.), and the RV was placed in 10% NBF. […] Final wet trimming was completed after 3-4 days fixation where a second 2 mm coronal slab was removed for hydroxyproline analysis and a third 2mm slab was removed from the equatorial region for histology.

[2] = system: Vascular Cell Adhesion Molecule-1 (VCAM-1); assay: Assay C: VCAM-1 mRNA, TaqMan; assay type: in vivo, rat; conditions: aldosterone+salt alone or with eplerenone 100 mg/kg/day; increase at day 30 did not reach statistical significance
Experimental: The procedure of Assay B was expanded upon in a further study. […] Myocardial tissue from animals in each treatment group was examined after 7, 14, or 30 days of treatment.
Potassium chloride supplementation was added to the saline solution in order to prevent the potential hypokalemia associated with aldosterone excess.
Treatment At the time of the surgery, an Alzet 2002 osmotic minipump (Alza Corp., Palo Alto, Calif.) containing either vehicle (9% ethanol/87% propylene glycol/4% dH2O) or 1.0 mg/mL d-aldosterone (Sigma Chemical, St. Louis, Mo.) was inserted subcutaneously at the nape of the neck. Aldosterone was administered at a dose of 0.75 µg/hour. […]
The fluorogenic 5′-nuclease assay (TaqMan PCR) using Applied Biosystems' 7700 Sequence Detection System (Applied Biosystems, Foster City, Calif.) allowed for real time detection/quantitation of a specific gene by monitoring the increase in fluorescence of a gene-specific, dye-labeled oligonucleotide probe. […] When the probe was annealed to the target gene, fluorescence of 6FAM was prevented by the close proximity of TAMRA. The exonuclease activity of Taq polymerase released the dyes from the oligonucleotide probe by displacing the probe from the target sequence resulting in fluorescence excitation in direct proportion to the amount of target message present. […]

## C[C@]12CCC(=O)C=C1CC[C@@H]1[C@@H]2[C@@H](O)C[C@]2(C=O)[C@@H](C(=O)CO)CC[C@@H]12 [aldosterone]
[1]
  Ventricular hypertrophy (absolute ventricular weights, ventricular weight to tibia length ratios): Significant left and right ventricular hypertrophy
  Body weight: significantly lower
[2]
  VCAM-1 gene expression in myocardium: increased two-fold at day 30

## COC(=O)[C@@H]1CC2=CC(=O)CC[C@]2(C)[C@@]23O[C@@H]2C[C@@]2(C)[C@@H](CC[C@@]24CCC(=O)O4)[C@H]13 [eplerenone]
[1]; 7 days of treatment, uninephrectomized Sprague-Dawley rats, 1% NaCl-0.3% KCl, aldosterone infusion alone or with eplerenone 100 mg/kg/day, individual rats and group Mean
  Final Body Weight: 286 g
[1]
  Ventricular hypertrophy (absolute ventricular weights, ventricular weight to tibia length ratios): did not impact absolute ventricular weights or ventricular weight to tibia length ratios
  Body weight: significantly attenuated
[2]
  VCAM-1 gene expression in myocardium: significantly reduced; also recorded: inhibition of early time-course expression of myocardial ICAM-1 and VCAM-1
